Assay results taken from patent publication US12492337B2, “Fluorescent probe, preparation method therefor and use thereof” (FLUORESCENCE DIAGNOSIS (SHANGHAI) BIOTECH COMPANY, priority 2017, dated 2025).

Columns and labels:
HaloTag protein tag = assay: Probe mixed with HaloTag protein tag, fluorescence spectrophotometer (Example 86); format: biochemical; settings: 5 μM probe, 10 μM protein tag, 37° C., 1 hour; for Fluorescence enhancement: fluorescence activation multiple after binding protein tag; for Emission/nm: fluorescence emission wavelength
Description: (§1) A probe was mixed with a corresponding HaloTag protein tag to obtain a mixed sample. The final concentration of the probe in the mixed sample was 5 μM and the final concentration of the protein tag was 10 μM. The mixed sample was incubated at 37° C. for 1 hour, and the sample was detected using a fluorescence spectrophotometer.

[1] = Quantum yield of free probe not reacted with protein tag; format: physicochemical
Description: as §1

[2] = Viscosity responsiveness: fluorescence intensity in glycerol versus methanol; format: physicochemical; settings: fluorescence intensity in glycerol to that in methanol
Method in brief: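 At 25 °C, with the same dye concentration and excitation wavelength, maximum emission intensity in glycerol was compared with intensity in methanol, giving a ratio. Dye concentrations ranged from 1×10^−7 M to 1×10^−5 M.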

[3] = tested on: HaloTag protein tags in different subcellular organelles of Hela cells; assay: Labeling HaloTag protein tags in different subcellular organelles of Hela cells (Example 90); format: cell-based; settings: 0.2 μM probe, 2 hours, no washing; cytoskeleton, mitochondria, nucleus, Golgi, whole cells, lysosomes
Description: In order to verify that probe 57, probe 59, probe 60, probe 61, probe 62, and probe 63 can be used to label target proteins located in different organelles. Hela cells were used as examples to detect the effect of probes on labeling HaloTag protein tags in different subcellular organelles. Hela cells were implanted 5000 cells per well in 96-well glass-bottom cell culture plates. After 14 hours, lipo2000 kit was used to transfect the plasmids localized by HaloTag protein tags in different organelles. The original culture medium was removed 24 hours after transfection, and the cells were washed twice with a phenol red-free DMEM medium, and incubated for 2 hours in a phenol red-free medium containing 0.2 μM probes, and the effect of cell labelling was detected by imaging using a Leica TCS-8 confocal microscope.

SNAP protein = assay: Labeling speed and fluorescence intensity, purified SNAP protein, microplate reader (Example 95); format: biochemical
Description: To verify that the probe-labeled HaloTag protein tag has a faster labeling speed and higher fluorescence intensity than the probe-labeled SNAP protein tag, a probe 48-labeled HaloTag protein tag and a reference probe 85-labeled SNAP protein tag were taken as examples (probe 48 and reference probe 85 have the same fluorescent dye portion). When labeling, the purified HaloTag protein and SNAP protein were first diluted to 7.5 μM with PBS.
Probe 48 and reference probe 85 were diluted to 15 μM with PBS, and 20 μL of probe 48 was added to 80 μL of HaloTag protein and mixed, 20 μL of reference probe 85 was added to 80 μL of SNAP protein and mixed, and a microplate reader was used to monitor the changes in fluorescence intensity of the two solutions excited at 620 nm and emitted at 650 nm, which lasted for two hours.

[4] = tested on: Hela cells stably expressing HaloTag protein tags; assay: Confocal imaging of labeled Hela cells stably expressing HaloTag protein tags (Example 89); format: cell-based; settings: Homo sapiens, 5 μM probe, 2 hours, 37° C., confocal microscope, read-out: fluorescence signal enhancement in Hela cells expressing the protein tag
Description: (§2) Hela cells are used as an example to test the labeling effect of compounds in mammalian cells. Hela cells and Hela-WT cells (Hela primitive cell, without a protein tag expressed) stably expressing HaloTag protein tags were planted in 14 mm 96-well glass bottom cell culture plates and stabilized for 10 hours. Probe 57, probe 59, probe 60, probe 61, probe 69, probe 75, probe 76, probe 82 were added to the culture medium and diluted to 5 μM, respectively. The cells were incubated in a 37° C. carbon dioxide incubator for 2 hours, and the fluorescence changes of the labeled cells were detected by imaging with a Leica TPS-8 confocal microscope.

Hela-WT cells = assay: Confocal imaging of Hela-WT cells without protein tag (Example 89); format: cell-based; settings: 5 μM probe, 2 hours, 37° C., confocal microscope
Description: as §2

[5] = tested on: fusion protein CX43-HaloTag; assay: Tracing assembly of CX43-HaloTag intercellular channels in Hela cells (Example 94); format: cell-based; settings: 1 μM probe added after labeling with probe 61 and washing
Description: To verify that the probe can be used to monitor the assembly and degradation of biomacromolecules in mammalian cells in real time, Hela cells were used as an example to detect the process of tracing, by a probe, the assembly of intercellular protein CX43 to form intercellular channels in mammalian cells. The C-terminus of CX43 gene was fused with HaloTag gene, and a Hela cell line stably expressing the fusion protein CX43-HaloTag was constructed and obtained by lentiviral infection technology. Hela-CX43-HaloTag cell lines were implanted in a 20 mm glass-bottom cell culture dish 10 hours before the probe labeling. When labeling, the probe 61 μM was first diluted to 2 μM with phenol red-free DMEM medium and replaced the original cell culture medium. The cells were incubated in a 37° C. carbon dioxide incubator for 1 hour. Thereafter, the cells were washed twice with fresh phenol red-free DMEM medium, and the unbound probe 61 was removed at intervals of 2 min. Then, a DMEM phenol-free medium containing 1 μM probe 57 was added to label the cells, and a Leica SP8 confocal microscope was used to monitor the fluorescence intensity and position changes of labeled cells at the corresponding fluorescence channels of probe 61 and probe 57 for a long time, which are shown in FIGS. 17A and 17B, respectively. […]

[6] = tested on: HaloTag protein tag expressed in the liver; assay: Labeling of HaloTag protein tag expressed in mouse liver, in vivo imaging system (Example 92); set-up: species or system mice; settings: 0.4 μM probe in 200 ul PBS via tail vein, 6 hours later
Description: First, a plasmid pcdna3.1-HaloTag (sample group) expressing the HaloTag protein tag and a control plasmid pcdna3.1-CAT (control group) not expressing the HaloTag protein tag were introduced into mice. This method is to dissolve the plasmid in a large volume of solution and inject it into mice quickly through tail vein injection. The mouse liver absorbs DNA and then expresses the target protein. 20 hours after the plasmid injection, 0.4 μM probe 77 dissolved in 200 ul of PBS was injected into the mice via tail vein injection to label the HaloTag protein tag; 6 hours later, the mice were dissected out, and the fluorescence differences in the liver parts of different mouse samples were detected by KODAK multi-spectral in vivo imaging system.
The fluorescence of the liver of the control plasmid pcdna3.1-CAT injected with the probe 77 was very low, which was close to the background fluorescence level of the blank liver without the probe injected, and the liver of the HaloTag plasmid pcdna3.1-HaloTag injected with the probe 77 had strong fluorescence, and the signal intensity was more than 20 times that of the control group.

Structure (SMILES)	The quantum yield after binding to Halo-tag (HaloTag protein tag)	Emission/nm (HaloTag protein tag)	The quantum yield of the free probe [1]	ratio [2]	Fluorescence enhancement (HaloTag protein tag)	effect of cell labelling of subcellular organelles [3]	labeling time of the SNAP protein tag labeled by the probe (SNAP protein; 20 μL 15 μM probe + 80 μL 7.5 μM protein in PBS, excited at 620 nm, emitted at 650 nm)	fluorescence intensity lower than the former (probe 48-labeled HaloTag) by (SNAP protein; same conditions as probe 48 with HaloTag protein)	fold induction at 5 µM [4]	fluorescent signal in Hela-WT cells (Hela-WT cells)	fluorescent signal in the probe 57 channel when just added [5]	liver fluorescence signal intensity relative to the control group ([6]; mice with pcdna3.1-HaloTag)	fluorescence of the liver of control plasmid pcdna3.1-CAT mice ([6]; mice without HaloTag expression)
CN(CCOC(=O)NCc1ccc(COc2nc(N)nc3[nH]cnc23)cc1)c1cc2c(s1)-c1sc(/C=C(\C#N)C(=O)OC(C)(C)C)cc1C2(C)C [Reference Probe85, reference compound]	0.32	645 nm	<0.001	510	321	–	about 7 min	≥ 1 time	–	–	–	–	–
CN(C)c1ccc2nc(/C=C(\C#N)C(=O)NCCOCCOCCCCCCCl)ccc2c1 [Probe 62]	0.57	590 nm	<0.001	711	592	clearly display a variety of subcellular organelle structures without washing	–	–	–	–	–	–	–
N#C/C(=C\c1cc2c3c(c1)CCCN3CCC2)C(=O)NCCOCCOCCCCCCCl [Probe 59]	0.45	500 nm	<0.001	370	498	clearly display a variety of subcellular organelle structures without washing	–	–	~200	no corresponding fluorescent signal could be detected	–	–	–
CN(C)c1ccc2nc(/C=C(\C#N)C(=O)NCCOCCOCCCCCCCl)oc2c1 [Probe 69]	0.47	610 nm	<0.001	317	491	–	–	–	~200	no corresponding fluorescent signal could be detected	–	–	–
CN1CCSc2cc(/C=C(\C#N)C(=O)NCCOCCOCCCCCCCl)ccc21 [Probe 60]	0.65	520 nm	0.0011	1199	751	clearly display a variety of subcellular organelle structures without washing	–	–	~200	no corresponding fluorescent signal could be detected	–	–	–
CN(C)c1ccc(/C=C(\C#N)C(=O)NCCOCCOCCCCCCCl)cc1 [Probe 57]	0.56	480 nm	<0.001	762	1026	clearly display a variety of subcellular organelle structures without washing	–	–	~200	no corresponding fluorescent signal could be detected	fluorescent signal could not be detected	–	–

The next lines start with results.

The quantum yield after binding to Halo-tag (HaloTag protein tag)	Emission/nm (HaloTag protein tag)	The quantum yield of the free probe [1]	ratio [2]	Structure (SMILES)	Fluorescence enhancement (HaloTag protein tag)	effect of cell labelling of subcellular organelles [3]	labeling time of the SNAP protein tag labeled by the probe (SNAP protein; 20 μL 15 μM probe + 80 μL 7.5 μM protein in PBS, excited at 620 nm, emitted at 650 nm)	fluorescence intensity lower than the former (probe 48-labeled HaloTag) by (SNAP protein; same conditions as probe 48 with HaloTag protein)	fold induction at 5 µM [4]	fluorescent signal in Hela-WT cells (Hela-WT cells)	fluorescent signal in the probe 57 channel when just added [5]	liver fluorescence signal intensity relative to the control group ([6]; mice with pcdna3.1-HaloTag)	fluorescence of the liver of control plasmid pcdna3.1-CAT mice ([6]; mice without HaloTag expression)
0.70	570 nm	0.0015	531	CN(C)c1ccc2cc(/C=C(\C#N)C(=O)NCCOCCOCCCCCCCl)sc2c1 [Probe 63]	486	clearly display a variety of subcellular organelle structures without washing	–	–	–	–	–	–	–
0.58	640 nm	0.0011	386	CN(C)c1cc2c(s1)-c1sc(/C=C(\C#N)C(=O)NCCOCCOCCCCCCCl)cc1C2(C)C [Probe 76]	666	–	–	–	~200	no corresponding fluorescent signal could be detected	–	–	–
0.56	620 nm	0.0021	500	CN(C)c1cc2sc3cc(/C=C(\C#N)C(=O)NCCOCCOCCCCCCCl)sc3c2s1 [Probe 75]	589	–	–	–	~200	no corresponding fluorescent signal could be detected	–	–	–
0.51	660 nm	<0.001	475	CN(C)c1cc2c(s1)-c1sc(/C=C(\C#N)C(=S)NCCOCCOCCCCCCCl)cc1C2(C)C [Probe 82]	781	–	–	–	~200	no corresponding fluorescent signal could be detected	–	–	–
0.53	652 nm	0.0014	479	CN(C)c1cc2c(s1)-c1sc(/C=C(\C#N)C(=O)OCCOCCOCCCCCCCl)cc1C2(C)C [Probe 77]	721	–	–	–	–	–	–	more than 20 times	very low
